{
  "source": "patent US9149471B2",
  "about": "“Therapeutic agent for osteoporosis” (NATIONAL UNIV. CORP. TOKYO UNIV. OF AG. AND TECH, priority 2013, dated 2015)",
  "key": {"[1]": {"system": "mouse model intratibially transplanted with an A549-luc-BM1 human lung cancer cell line", "experiment": "Abnormal bone formation and bone resorption in mouse model intratibially transplanted with A549-luc-BM1 cells (μCT)", "type": "in vivo", "conditions": "A549-luc-BM1 in mouse tibia", "excerpt": "Inhibitory Effect on the Abnormal Bone Formation and Bone Resorption in the Mouse Model Intratibially Transplanted an A549-Luc-BM1 Human Lung Cancer Cell Line The A549 human lung cancer cell line in which the luciferase gene was transfected was transplanted in the left ventricle of nude mice, whereby the A549-luc-BM1 lung cancer cell line, which selectively metastasizes to and proliferates in the bone, was established. The cells thus obtained were transplanted in the mouse tibia at 2×10^6 cells/15 μL. On Day 7 after transplantation, the luciferase activity in the graft site was measured by an in-vivo imaging system. Subsequently, the mice were grouped so that the average luciferase activity of each group was equal, and the compound IA was administered orally at 200 mg/kg/day every day for 28 days. The treatment control group received subcutaneous administration of zoledronic acid, which is the third-generation bisphosphonate preparation, at 0.2 mg/kg/day twice a week. For the evaluation of bone lesions, the graft site was imaged by μCT on Day 36 after transplantation."}, "[2]": {"system": "mouse model intratibially transplanted with a PC-3 human prostate cancer cell line", "experiment": "Abnormal bone formation and bone resorption in mouse model intratibially transplanted with PC-3 cells (μCT)", "type": "in vivo", "conditions": "PC-3 in mouse tibia, 200 mg/kg/day orally every day for 10 days", "description": "Inhibitory Effect on the Abnormal Bone Formation and Bone Resorption in the Mouse Model Intratibially Transplanted with a PC-3 Human Prostate Cancer Cell Line\nThe PC-3 human prostate cancer cell line was transplanted in the mouse tibia at 2×10^6 cells/15 μL. On the following day of transplantation, the mice were grouped so that the average body weight of the mice in each group was equal, and the compound IA was administered orally at 200 mg/kg/day every day for 10 days. On Day 11 after transplantation, the graft site was imaged by μCT and bone lesions were evaluated."}},
  "data": [
    {"smiles": "CNC(=O)c1cc2c(Oc3ccc(NC(=S)NC(=O)Cc4ccccc4)cc3F)ccnc2cc1OC", "note": "[Compound IA, 4-[2-fluoro-4-[[[(2-phenylacetyl)amino]thioxomethyl]amino]-phenoxy]-7-methoxy-N-methyl-6-quinolinecarboxamide]", "values": [
      {"measurement": "inhibitory effect on abnormal bone metabolism (bone resorption and bone formation) compared with zoledronic acid", "setting": "[1]; 200 mg/kg/day orally for 28 days", "value": "better inhibitory effect on abnormal bone metabolism (bone resorption and bone formation) than zoledronic acid"},
      {"measurement": "bone destruction and deformation at the graft site (μCT, FIG. 2)", "setting": "[1]; compound IA 200 mg/kg/day orally for 28 days, zoledronic acid 0.2 mg/kg/day s.c. twice a week, μCT on Day 36", "value": "remarkably inhibited bone destruction and deformation"},
      {"measurement": "bone mass (inhibition of accelerated metabolic bone destruction and formation of abnormal brittle bone)", "setting": "[2]", "value": "maintained a normal level of bone mass"},
      {"measurement": "death and body weight reduction", "setting": "[2]", "value": "without causing death or reducing body weight"},
      {"measurement": "abnormal bone formation in the bone at the graft site (μCT, FIG. 1)", "setting": "[2]; μCT on Day 11 after transplantation", "value": "evidently inhibited the abnormal bone formation"}
    ]}
  ]
}
